Values after ≈ are worked out from the molar mass of the structure shown.

This is an account of results in PMC11602940, “Assessing multi-target antiviral and antioxidant activities of natural compounds against SARS-CoV-2: an integrated in vitro and in silico study” (Bioresources and Bioprocessing, 2024).

One assay has as its system SARS-CoV-2. Type of assay: cell-based.
The test system of assay [1] is Vero CCL-81 cells. Put plainly: MTT cytotoxicity assay. In kind it is cell-based. The following applies: 48 h. On the procedure:
An MTT (3-[4,5-dimethylthiazol-2-yl]-2,5 diphenyl tetrazolium bromide) assay was used to measure the effects of the selected compounds on Vero CCL-81 cells to ascertain the cytotoxicity of the compounds (Njeru and Muema [2021]; El-Shehawy et al. [2023]). To summarize, Vero CCL-81 cells were seeded in 96-well plates with 1.0 × 10^4 cells per well in DMEM supplemented with 2% FBS at a density of 1.0 × 10^4 cells per well. In the following step, the plates were incubated at 37 °C with 5% CO2 for 24 h before they were collected. A dilution of 150 µL of compounds was added in quadruplicate to each well after the incubation, and the wells were kept at 37 °C with 5% CO2 for 48 h. After the PBS was added to each well, a final step was to add 30 µL of MTT, remove the supernatants, and wash with PBS twice. A 2 h incubation period was conducted after MTT addition, at 37 °C, using 5% CO2, and it was protected from light for 2 h. A 100 µL/well DMSO solution was added to the wells to dissolve the formazan crystals (El-Sewedy et al. [2023]). Positive controls (cells treated with a known cytotoxic agent) and negative controls (untreated cells) were included in each experiment and were in triplicate.
On the technique in general: Tetrazolium assays rely on reduction of a dye to a coloured formazan, in cell work by metabolically active cells.

The subject of assay [2] is Vero CCL-81 cells. Briefly: Dose-dependent assay (Chou-Talalay, CompuSyn) from MTT data. Type of assay: cell-based. On the procedure:
The compounds were analyzed using MTT assay data. By applying the Chou-Talalay method, the dose-dependent effect was calculated (Elwakeel et al. [2019]). This calculation was performed using CompuSyn software. The dose–effect curves were created for both single treatments, and the fraction affected (Fa) values were determined for each dose and corresponding effect as previously reported (El-Sewedy et al. [2023]). The dose-dependent assay was carried out in triplicate to guarantee reproducibility.

The nature of assay [3]: Ferric reducing antioxidant power assay (FRAP). On the procedure:
The FRAP assay is based on the reduction of ferric ions (Fe^3⁺) to ferrous ions (Fe^2⁺) in the presence of antioxidants. The reduced Fe^2⁺ forms a blue-colored complex with 2,4,6-tripyridyl-s-triazine (TPTZ), and the intensity of the color is directly proportional to the reducing power of the sample, which can be quantified spectrophotometrically. For the assay, an acetate buffer (300 mM, pH 3.6) is prepared by dissolving […] in 1 L of distilled water. The TPTZ solution (10 mM) is dissolved in 40 mM HCl, and the ferric chloride solution (FeCl₃, 20 mM) is prepared separately. The FRAP reagent is freshly prepared before the assay by mixing 10 parts acetate buffer, 1 part TPTZ solution, and 1 part FeCl₃ solution. This reagent is kept at 37 °C to ensure its stability during the reaction. For the sample preparation, different concentrations of samples were dissolved in methanol. Trolox, a well-known antioxidant, is used as the positive control and prepared at the same concentrations for comparison. To conduct the assay, 100 µL of each sample or Trolox solution is mixed with 3 mL of freshly prepared FRAP reagent in a 96-well plate or test tube. The mixtures are incubated at 37 °C for 30 min, allowing the antioxidants in the samples to reduce the Fe^3⁺ ions to Fe^2⁺. After incubation, the absorbance of the resulting blue-colored complex is measured at 593 nm using a UV–visible spectrophotometer. The FRAP value of each sample is calculated by comparing the absorbance to a standard curve generated using known concentrations of ferrous sulfate (FeSO₄). The antioxidant capacity is expressed as µmol Fe^2⁺ equivalents/g of the sample. The experiment included three separate readings for every measurement.

Assay [4] can be described thus: Cupric ion reducing antioxidant capacity assay (CUPRAC). On the procedure:
The CUPRAC assay evaluates the ability of antioxidants to reduce cupric ions (Cu^2⁺) to cuprous ions (Cu^1⁺), forming a stable colored complex with neocuproine. For the assay, a CUPRAC reagent is prepared by mixing 10 mL of 10 mM copper(II) chloride (CuCl₂), 10 mL of 7.5 mM neocuproine, and 10 mL of ammonium acetate buffer (pH 7.0). […] Trolox is again used as the positive control and prepared at the same concentrations. For the assay, 1 mL of each sample concentration or Trolox is mixed with 1 mL of CUPRAC reagent in a 96-well plate or test tube. The reaction mixture is incubated at room temperature for 30 min to allow a complete reduction of Cu^2⁺ to Cu^1⁺. The absorbance is then measured at 450 nm using a UV–visible spectrophotometer. The antioxidant capacity is determined by comparing the absorbance to a Trolox standard curve, and the results were expressed as µmol Trolox equivalents/g of the sample. All measurements are performed in triplicate.

The nature of assay [5]: ABTS radical cation scavenging activity. How it is done:
The activity of scavenging ABTS radical cation was assessed across various concentrations, and the outcomes were juxtaposed with those obtained from standard materials. The selected compounds and vitamin C were evaluated at corresponding concentrations, following the methodology outlined in a prior study (AlBalawi et al. [2023]). Using the absorbance reading at 734 nm, the percentage of ABTS radical cation scavenging activity was computed using the formula: %ABTSradicalcationscavengingactivity=1-AsampleAsampleAcontrolAcontrol×100TopofForm

Consider `CCC(CC)COC(=O)[C@H](C)N[P@](=O)(OC[C@H]1O[C@@](C#N)(c2ccc3c(N)ncnn23)[C@H](O)[C@@H]1O)Oc1ccccc1` [RVD, Remdesivir, reference compound], for which the “decrease in SARS-CoV-2 viral titer” value in the assay on SARS-CoV-2 is 100%.

A word on the IC50: it is the concentration that gives 50% inhibition. Low values mean higher potency, high ones lower potency. Take `COc1cc(/C=C/C(=O)CC(=O)/C=C/c2ccc(O)c(OC)c2)ccc1O` [Curcumin]: the IC50 in the assay with Vero CCL-81 cells [1] came out at 83.2 µg/mL (≈ 226 µM). Besides, the “Dose at fraction affected (Fa)” value worked out at 9.421 in the assay on Vero CCL-81 cells [2] (Fa 0.5, 48 h treatment); 20.7718 with Vero CCL-81 cells [2] (Fa 0.75, 48 h treatment); 45.7973 in the assay with Vero CCL-81 cells [2] (Fa 0.9, 48 h treatment); 78.4112 in the assay on Vero CCL-81 cells [2] (Fa 0.95, 48 h treatment); 114.960 in the assay with Vero CCL-81 cells [2] (Fa 0.97, 48 h treatment). Further, the “effect on SARS-CoV-2 viral titer” value with SARS-CoV-2 is listed as “reduced viral titer”.

Compound `O=c1c(O)c(-c2ccc(O)c(O)c2)oc2cc(O)cc(O)c12` [Quercetin] returned a concentration for half-maximal inhibition (IC50) with Vero CCL-81 cells [1] of 55.2 µg/mL (≈ 183 µM). In addition, the “Dose at fraction affected (Fa)” value is 12.0260 in the assay on Vero CCL-81 cells [2] (Fa 0.5, 48 h treatment); 46.3852 in the assay on Vero CCL-81 cells [2] (Fa 0.75, 48 h treatment); 178.911 in the assay with Vero CCL-81 cells [2] (Fa 0.9, 48 h treatment); 448.103 in the assay on Vero CCL-81 cells [2] (Fa 0.95, 48 h treatment); 861.173 with Vero CCL-81 cells [2] (Fa 0.97, 48 h treatment). The “FRAP ± SD” value came out at 120.30 ± 4.00 μmol Fe^2⁺ eq/g in assay [3] (10 µg/mL); 200.15 ± 5.20 μmol Fe^2⁺ eq/g in assay [3] (20 µg/mL); 350.45 ± 7.50 μmol Fe^2⁺ eq/g in assay [3] (40 µg/mL); 600.55 ± 10.10 μmol Fe^2⁺ eq/g in assay [3] (80 µg/mL); 800.45 ± 12.50 μmol Fe^2⁺ eq/g in assay [3] (100 µg/mL). For the same compound, the “CUPRAC ± SD” value in assay [4] (10 µg/mL) is reported as 115.25 ± 3.70 μmol Trolox eq/g; in assay [4] (20 µg/mL) it was 190.20 ± 5.00 μmol Trolox eq/g; in assay [4] (40 µg/mL) it was 340.30 ± 7.00 μmol Trolox eq/g; in assay [4] (80 µg/mL), 590.10 ± 9.50 μmol Trolox eq/g; in assay [4] (100 µg/mL), 780.55 ± 11.20 μmol Trolox eq/g. The “ABTS ± SD” value in assay [5] (10 µg/mL) is reported as 130.40 ± 4.50 μmol Trolox eq/g; in assay [5] (20 µg/mL), 210.10 ± 6.00 μmol Trolox eq/g; in assay [5] (40 µg/mL) it was 360.40 ± 8.00 μmol Trolox eq/g; in assay [5] (80 µg/mL), 620.20 ± 11.50 μmol Trolox eq/g; in assay [5] (100 µg/mL), 820.30 ± 14.00 μmol Trolox eq/g. The “concentration to which antiviral properties were limited” value in the assay on SARS-CoV-2 is given as 100 µg/mL. Besides, in the assay with SARS-CoV-2, the “effect on SARS-CoV-2 viral titer” value was “no noticeable change in viral titer”.

`Cc1c(C)c2c(c(C)c1O)CCC(C)(C(=O)O)O2` (stereo not shown) [Trolox, reference compound]: the “FRAP ± SD” value in assay [3] (1000 µg/mL) came out at 1200.00 ± 20.00 μmol Fe^2⁺ eq/g. In addition, the “CUPRAC ± SD” value in assay [4] (1000 µg/mL) is on record as 1100.00 ± 17.50 μmol Trolox eq/g. For the same compound, in assay [5] (1000 µg/mL), the “ABTS ± SD” value is 1300.00 ± 22.00 μmol Trolox eq/g.
